Experimental data from patent publication US9029366B2, “Substituted bicyclic alkoxy pyrazole analogs as allosteric modulators of mGluR5 receptors” (Vanderbilt University, priority 2012, dated 2015).
Read-outs that look alike come from different tables or passages of the source.

Molecular target: human mGluR5 (Homo sapiens, UniProt P41594)
Assay: Cell-based functional Ca2+ mobilization assay (FDSS), potentiation of glutamate EC20 response, HEK293A cells transfected with human mGluR5a (H10H or H12H cell line)
Conditions: in presence of glutamate EC20, ** = compound is an antagonist; for Emax: HEK293-A
Procedure: Human embryonic kidney (HEK) cells transfected with rat mGluR5 were plated in clear bottom assay plates for assay in a Functional Drug Screening System (FDSS). In the alternative assay, HEK cells transfected with human mGluR5 were plated for assay in the FDSS. In some cases the HEK cells transfected with human mGluR5 are the H10H cell line. Alternatively, the HEK cells transfected with human mGluR5 are the H12H cell line. […] The cells were loaded with a Ca^2+-sensitive fluorescent dye (e.g., Fluo-4), and the plates were washed and placed in the FDSS instrument. After establishment of a fluorescence baseline for about three seconds, the compounds of the present invention were added to the cells, and the response in cells was measured. Five minutes later, an mGluR5 agonist (e.g., glutamate, 3,5-dihydroxyphenylglycine, or quisqualate) was added to the cells, and the response of the cells was measured.
The above described assay can be operated in two modes. In the first mode, a range of concentrations of the present compounds were added to cells, followed by a single fixed concentration of agonist. If a compound acted as a potentiator, an EC50 value for potentiation and a maximum extent of potentiation by the compound at this concentration of agonist was determined by non-linear curve fitting. In the second mode, several fixed concentrations of the present compounds were added to various wells on a plate, followed by a range of concentrations of agonist for each concentration of present compound; the EC50 values for the agonist at each concentration of compound were determined by non-linear curve fitting. A decrease in the EC50 value of the agonist with increasing concentrations of the present compounds (a leftward shift of the agonist concentration-response curve) is an indication of the degree of mGluR5 potentiation at a given concentration of the present compound. An increase in the EC50 value of the agonist with increasing concentrations of the present compounds (a rightward shift of the agonist concentration-response curve) is an indication of the degree of mGluR5 antagonism at a given concentration of the present compound. The second mode also indicates whether the present compounds also affect the maximum response to mGluR5 to agonists.
Human mGluR5a cDNA in pCMV6-XL6 mammalian expression plasmid was purchased from OriGene Technologies, Inc. (catalogue number SC326357) and subcloned into pcDNA3.1(−). Human embryonic kidney (HEK)293A cells were then transfected with human mGluR5a pcDNA3.1(−) using LipofectAmine2000 (Invitrogen) and monoclones were selected and tested for functional response using a Ca^2+ mobilization assay. Monoclones were named for the species (“H” for human) plus the location on the plate (e.g. “10H”).
HEK cells transfected with the human mGluR5a receptor (H10H or H12H cell line) were plated at 15,000 cells/well in clear-bottomed poly-D-lysine-coated assay plates (BD Falcon) in glutamate-glutamine-free growth medium and incubated overnight at 37° C. and 5% CO2. Cell-lines used were either the H10H or H12H cell-lines expressing the human mGluR5 receptor. The following day, the growth medium was removed and the cells were washed with assay buffer containing 1× Hank's balanced salt solution (Invitrogen, Carlsbad, Calif.), 20 mM HEPES, 2.5 mM probenecid, pH 7.4 and left with 20 μL of this reagent. Following this step, the cells were loaded with calcium indicator dye, fluo-4 AM, to a final concentration of 2 μM and incubated for 40-45 min at 37° C. The dye solution was removed and replaced with assay buffer. Cell plates were held for 10-15 min at room temperature and were then loaded into the Functional Drug Screening System 6000 (FDSS 6000, Hamamatsu, Japan).
After establishment of a fluorescence baseline for about 3 seconds, the compounds of the present invention were added to the cells, and the response in cells was measured.

[1] = H10H cell line expressing recombinant human mGluR5, read-out: pEC50 (converted)
[2] = H10H cell line expressing recombinant human mGluR5, % of maximal glutamate response

human mGluR5, sequence (P41594 21-1180 isoform P41594-2 limits assumed): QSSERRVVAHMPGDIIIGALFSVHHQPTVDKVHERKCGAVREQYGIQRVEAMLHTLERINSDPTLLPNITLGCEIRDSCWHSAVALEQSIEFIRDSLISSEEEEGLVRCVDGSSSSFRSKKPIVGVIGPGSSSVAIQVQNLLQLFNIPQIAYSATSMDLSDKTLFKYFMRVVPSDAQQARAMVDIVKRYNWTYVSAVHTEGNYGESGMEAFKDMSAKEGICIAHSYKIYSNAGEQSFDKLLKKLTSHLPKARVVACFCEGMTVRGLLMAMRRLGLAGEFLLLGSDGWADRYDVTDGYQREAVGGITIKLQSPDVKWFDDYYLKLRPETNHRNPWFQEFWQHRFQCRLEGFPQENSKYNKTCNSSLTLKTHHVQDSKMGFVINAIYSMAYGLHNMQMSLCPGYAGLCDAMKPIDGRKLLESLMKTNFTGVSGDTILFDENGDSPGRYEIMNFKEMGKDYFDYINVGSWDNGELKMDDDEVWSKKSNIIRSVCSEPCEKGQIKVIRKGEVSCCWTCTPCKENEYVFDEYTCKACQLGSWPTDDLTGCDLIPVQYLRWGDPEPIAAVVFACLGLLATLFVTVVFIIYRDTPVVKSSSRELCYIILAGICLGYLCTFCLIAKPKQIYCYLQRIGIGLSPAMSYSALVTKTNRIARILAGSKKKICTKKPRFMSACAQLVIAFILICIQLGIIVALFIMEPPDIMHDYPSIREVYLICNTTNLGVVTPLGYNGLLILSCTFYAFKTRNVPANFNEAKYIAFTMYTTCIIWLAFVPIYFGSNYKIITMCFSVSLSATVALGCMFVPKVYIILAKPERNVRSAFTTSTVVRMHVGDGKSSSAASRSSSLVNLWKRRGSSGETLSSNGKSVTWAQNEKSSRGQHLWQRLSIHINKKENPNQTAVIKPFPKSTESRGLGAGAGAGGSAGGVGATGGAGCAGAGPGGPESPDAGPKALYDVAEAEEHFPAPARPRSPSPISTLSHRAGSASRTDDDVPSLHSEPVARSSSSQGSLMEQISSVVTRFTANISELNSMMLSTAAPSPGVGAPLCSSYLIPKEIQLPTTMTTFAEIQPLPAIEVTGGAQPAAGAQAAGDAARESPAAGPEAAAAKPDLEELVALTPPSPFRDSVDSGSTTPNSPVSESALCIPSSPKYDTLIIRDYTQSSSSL

Row | Compound | EC50 [1] | Emax [2] | EC50 (pEC50, H10H cell line expressing recombinant human mGluR5) | Emax (%) [2] | pEC50 (H10H cell line expressing recombinant human mGluR5)
1 | O=C(c1ccc(F)cc1)N1CCn2nc(OCc3ccccc3)cc2C1 [Example B1, 2-(benzyloxy)-5-[(4-fluorophenyl)carbonyl]-4,5,6,7-tetrahydropyrazolo[1,5-a]pyrazine] | 0.166 µM | 68% | – | – | –
2 | CO[C@](C(=O)N1CCn2nc(OCc3ccccc3)cc2C1)(c1ccccc1)C(F)(F)F [Example B87] | > 30.2 µM | 15% | – | – | –
3 | Cn1c(Cl)ccc1C(=O)N1CCn2nc(OCc3cccc(F)c3)cc2C1 [Example B80, (5-chloro-1-methyl-1H-pyrrol-2-yl)-[2-(3-fluoro-benzyloxy)-6,7-dihydro-4H-pyrazolo[1,5-a]pyrazin-5-yl]-methanone] | 0.0229 µM | 65% | – | – | –
4 | CC(C)(C)NCC(=O)N1CCn2nc(OCc3ccccc3)cc2C1 [Example B25] | > 30.2 µM | 20% | – | – | –
5 | O=C(c1ccc(F)cc1)N1CCn2nc(OCc3ncccn3)cc2C1 [Example B117] | > 30.2 µM | 30% | – | – | –
6 | Cc1ccc(C(=O)N2CCn3nc(OCc4ccccc4)cc3C2)o1 [Example B56] | 0.562 µM | 49% | – | – | –
7 | O=C(c1ccc(F)cc1)N1CCn2nc(OCc3ccnc(F)c3)cc2C1 [Example B116] | ≥ 10 µM | 51% | – | – | –
8 | O=C(c1ccc(F)cc1)N1CCn2nc(OCc3ccnc(Cl)c3)cc2C1 [Example B126] | 0.178 µM | 35% | – | – | –
9 | Cc1ccoc1C(=O)N1CCn2nc(OCc3ccccc3)cc2C1 [Example B54] | > 30.2 µM | 20% | – | – | –
10 | O=C(c1ccsc1)N1CCn2nc(OCc3ccccc3)cc2C1 [Example B60] | 0.275 µM | 61% | – | – | –
11 | CC(=O)N1CCn2nc(OCc3ccccc3)cc2C1 [Example B108] | > 30.2 µM | 28% | – | – | –
12 | O=C(c1cc[nH]n1)N1CCn2nc(OCc3ccccc3)cc2C1 [Example B52] | 2 µM | 71% | – | – | –
13 | O=C(c1cc(Cl)cc(Cl)c1)N1CCn2nc(OCc3ccccc3)cc2C1 [Example B47] | 0.11 µM | 25% | – | – | –
14 | O=C(c1cncc(F)c1)N1CCn2nc(OCc3ccccc3)cc2C1 [Example B63] | 2 µM | 48% | – | – | –
15 | O=C(CC(F)(F)F)N1CCn2nc(OCc3ccccc3)cc2C1 [Example B69] | > 30.2 µM | 16% | – | – | –
16 | O=C(c1ccc(F)cc1)N1CCn2nc(OCc3cccc(C(F)F)c3)cc2C1 [Example B124] | 0.676 µM | 54% | – | – | –
17 | CN(C)c1cccc(C(=O)N2CCn3nc(OCc4ccccc4)cc3C2)n1 [Example B88] | 0.617 µM | 40% | – | – | –
18 | O=C(COCc1ccccc1)N1CCn2nc(OCc3ccccc3)cc2C1 [Example B72] | 3.8 µM | 34% | – | – | –
19 | CC(C)(C)CC(=O)N1CCn2nc(OCc3ccccc3)cc2C1 [Example B68] | 0.355 µM | 69% | – | – | –
20 | O=C(c1ccccc1)N1CCn2nc(OCc3ccccc3)cc2C1 [Example B50] | 0.141 µM | 55% | – | – | –
21 | O=C(c1ccncc1)N1CCn2nc(OCc3ccccc3)cc2C1 [Example B62] | 1.86 µM | 20% | – | – | –
22 | O=C(N1CCn2nc(OCc3ccccc3)cc2C1)C12C3C4C5C3C1C5C42 (centres unmarked) [Example B125] | 0.245 µM | 73% | – | – | –
23 | CCOc1ccccc1C(=O)N1CCn2nc(OCc3ccccc3)cc2C1 [Example B48] | > 30.2 µM | 13% | – | – | –
24 | COc1ccc(C(=O)N2CCn3nc(OCc4ccccc4)cc3C2)cc1F [Example B45] | > 30.2 µM | 19% | – | – | –
25 | O=C(c1ccc(Cl)c(Cl)c1)N1CCn2nc(OCc3ccccc3)cc2C1 [Example B42] | 1.23 µM | 39% | – | – | –
26 | CC(C)OCC(=O)N1CCn2nc(OCc3ccccc3)cc2C1 [Example B23] | 3.24 µM | 34% | – | – | –

Row | Compound | EC50 [1] | Emax [2] | EC50 (pEC50, H10H cell line expressing recombinant human mGluR5) | Emax (%) [2] | pEC50 (H10H cell line expressing recombinant human mGluR5)
27 | O=C(c1ccco1)N1CCn2nc(OCc3ccccc3)cc2C1 [Example B55] | – | 55% | 0.324 µM | – | –
28 | O=C(c1ccccc1Cl)N1CCn2nc(OCc3ccccc3)cc2C1 [Example B44] | 0.0955 µM | 33% | – | – | –
29 | O=C(c1cnc[nH]1)N1CCn2nc(OCc3ccccc3)cc2C1 [Example B58] | > 30.2 µM | 22% | – | – | –
30 | O=C(c1cccnc1)N1CCn2nc(OCc3ccccc3)cc2C1 [Example B64] | > 10 µM | 38% | – | – | –
31 | O=C(c1ccc(F)cc1)N1CCn2nc(OCc3ccnc(C(F)(F)F)c3)cc2C1 [Example B123] | ≥ 10 µM | 30% | – | – | –
32 | O=C(c1ccccn1)N1CCn2nc(OCc3ccccc3)cc2C1 [Example B61] | 4.27 µM | 46% | – | – | –
33 | O=C(c1c[nH]c2ccccc12)N1CCn2nc(OCc3ccccc3)cc2C1 [Example B59] | 0.166 µM | 71% | – | – | –
34 | O=C(c1ccc[nH]1)N1CCn2nc(OCc3ccccc3)cc2C1 [Example B57] | 1.23 µM | 39% | – | – | –
35 | O=C(c1ncc(F)cc1F)N1CCn2nc(OCc3ccccc3)cc2C1 [Example B65] | > 10 µM | 56% | – | – | –
36 | C[C@@H]1Cn2nc(OCc3ccccc3)cc2CN1C(=O)c1ccc(F)cc1 [Example B7] | 0.813 µM | 62% | – | – | –
37 | O=C(c1ccc(F)cc1)N1CCn2nc(OCc3ccc4nccn4c3)cc2C1 [Example B118] | > 30.2 µM | 25% | – | – | –
38 | 1-(2-(benzyloxy)-6,7-dihydropyrazolo[1,5-a]pyrazin-5(4H)-yl)-2-(tert-butylamino)ethanone [Example B24] | – | – | – | 28% | <4.52
39 | O=C(c1ccnc(F)c1)N1CCn2nc(OCc3ccccc3)cc2C1 [Example B138] | 0.891 µM | 37% | – | – | –
40 | Cn1cc(C(=O)N2CCn3nc(OCc4cccc(F)c4)cc3C2)c2ccccc21 [Example B79] | 1.32 µM | 32% | – | – | –
41 | CC(C)(C)OCC(=O)N1CCn2nc(OCc3ccccc3)cc2C1 [Example B21] | 0.631 µM | 53% | – | – | –
42 | O=C(C1CC1c1ccccc1)N1CCn2nc(OCc3ccccc3)cc2C1 (centres unmarked) [Example B71] | 2.34 µM | 30% | – | – | –
43 | O=C(CC1CCCC1)N1CCn2nc(OCc3ccccc3)cc2C1 [Example B67] | 0.479 µM | 52% | – | – | –
44 | CC(C)(C)CCC(=O)N1CCn2nc(OCc3ccccc3)cc2C1 [Example B26] | 0.589 µM | 59% | – | – | –
45 | Cn1cc(C(=O)N2CCn3nc(OCc4cccc(F)c4)cc3C2)cc1Cl [Example B93] | 0.347 µM | 65% | – | – | –
46 | CCC(C)C(=O)N1CCn2nc(OCc3ccccc3)cc2C1 (centres unmarked) [Example B75] | > 30.2 µM | 27% | – | – | –
47 | O=C(c1ncccn1)N1CCn2nc(OCc3ccccc3)cc2C1 [Example B51] | > 30.2 µM | 26% | – | – | –
48 | N#Cc1cc(COc2cc3n(n2)CCN(C(=O)c2ccc(F)cc2)C3)ccn1 [Example B127] | 0.562 µM | 36% | – | – | –
49 | CCOCC(=O)N1CCn2nc(OCc3ccccc3)cc2C1 [Example B27] | > 30.2 µM | 17% | – | – | –
50 | O=C(c1ccccc1C(F)(F)F)N1CCn2nc(OCc3ccccc3)cc2C1 [Example B41] | > 30.2 µM | 25% | – | – | –
51 | O=C(c1ccc(Cl)cc1)N1CCn2nc(OCc3ccccc3)cc2C1 [Example B40] | 0.269 µM | 46% | – | – | –
52 | N#Cc1ccc(C(=O)N2CCn3nc(OCc4ccccc4)cc3C2)c(F)c1 [Example B46] | > 30.2 µM | 20% | – | – | –
